According to patent publication US20150038591A1, “Compounds, compositions and methods for the treatment of tauopathies” (PROTEOTECH INC., priority 2002, published 2015):

Legend:
Tau aggregates = Tau aggregates (Homo sapiens, UniProt P10636); assay: Thioflavin S fluorometry, dissolution/disruption/inhibition of Tau aggregates; type: biochemical
Method: In contrast to quantitation of Aβ fibrils, where ThioT is used, it was shown for tau aggregates that ThioS is more reproducible and independent of solvent characteristics. […] (Friedhoff, P et al. (1998) Biochem 10223-10230)
The Thio S assay involves the dilution of 500 μM ThioS stock 1:1 with PBS. Pipette 25 μl of this into the wells of a 96-well assay plate. Add 50 μl samples and 50 μl PBS and mix well. Read plates immediately on a fluorometer with the excitation set at 444 nm and emission set at 485 nm. […] Log transformed values are analyzed using “Nonlinear regression (curve fit) log(inhibitor) vs. normalized response—Variable slope” analysis.

aggregated Tau-441 = target: T1, aggregated Tau-441 (Homo sapiens, UniProt P10636); assay: Thioflavin T fluorometry, dissolution/disruption/inhibition of preformed Tau aggregates; type: biochemical; settings: 3 days at 37° C.
T1 construct: purchased rPeptide
Method: Thioflavin T binds specifically to aggregated Tau or Tau tangles, and this binding produces a fluorescence enhancement at 485 nm that is directly proportional to the amount of aggregated Tau. The higher the fluorescence, the greater the amount of aggregated Tau.
In this study, Tau-441 or TauRD was pre-fibrillized or aggregated by combining with Heparin (SIGMA) at 1:1 wt/wt, then incubation at 37° C. and shaking at 1400 rpm for 8 days. […] Following 3-days of co-incubation, 50 μl of each incubation mixture was transferred into a 96-well microtiter plate containing 150 μl of distilled water and 50 μl of a Thioflavin T solution (i.e. […] Thioflavin T in 250 mM phosphate buffer, pH 6.8). The fluorescence was read at 485 nm (444 nm excitation wavelength) using an ELISA plate fluorometer after subtraction with buffer alone or compound alone, as blank.

[1] = Tau:test compound wt/wt ratio 1:0.001
[2] = Tau:test compound wt/wt ratio 1:0.01
[3] = Tau:test compound wt/wt ratio 1:0.1
[4] = Tau:test compound wt/wt ratio 1:1

T1 sequence (P10636 1-441 isoform P10636-8): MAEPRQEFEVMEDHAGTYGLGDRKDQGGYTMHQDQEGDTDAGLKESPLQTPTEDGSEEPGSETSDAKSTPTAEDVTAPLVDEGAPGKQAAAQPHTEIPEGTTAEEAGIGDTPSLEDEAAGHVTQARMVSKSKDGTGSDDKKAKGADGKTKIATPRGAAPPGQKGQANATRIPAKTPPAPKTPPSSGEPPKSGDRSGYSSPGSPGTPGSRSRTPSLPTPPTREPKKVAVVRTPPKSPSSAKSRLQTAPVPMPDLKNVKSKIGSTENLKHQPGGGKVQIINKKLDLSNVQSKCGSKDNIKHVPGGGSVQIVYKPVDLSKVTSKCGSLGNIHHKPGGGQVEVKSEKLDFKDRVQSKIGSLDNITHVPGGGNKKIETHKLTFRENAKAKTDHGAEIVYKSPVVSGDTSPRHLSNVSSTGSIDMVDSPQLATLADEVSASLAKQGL
Sequence of Tau aggregates (P10636 1-441 isoform P10636-8): as above

Structure (SMILES)	IC50 (Tau aggregates) [µM]	% dissolution/disruption/inhibition Tau (result ± S.D.) (aggregated Tau-441; [1]) [%]	% dissolution/disruption/inhibition Tau (result ± S.D.) (aggregated Tau-441; [2]) [%]	% dissolution/disruption/inhibition Tau (result ± S.D.) (aggregated Tau-441; [3]) [%]	% dissolution/disruption/inhibition Tau (result ± S.D.) (aggregated Tau-441; [4]) [%]
O=C(NCCc1ccc(O)c(O)c1)Nc1ccc(O)c(O)c1 [Compound 78, 1-(3,4-Dihydroxyphenyl)-3-(3,4-dihydroxyphenethyl)urea]	5.26				
Oc1ccc(Cc2ccc(O)c(O)c2)cc1O [Compound 3, 3,4,3′,4′-Tetrahydroxydiphenylmethane]	32.4	17.0 ± 2.49	54.1 ± 2.62	89.2 ± 1.96	91.2 ± 2.59
O=C(Nc1ccc(O)c(O)c1)Nc1ccc(O)c(O)c1 [Compound 76, 1,3-Bis(3,4-dihydroxyphenyl)urea]	3.95	17.4 ± 4.88	54.1 ± 2.62	91.2 ± 0.56	94.1 ± 2.99
O=C(Nc1ccc(O)c(O)c1)C(=O)Nc1ccc(O)c(O)c1 [Compound 63, oxalic acid bis(3,4-dihydroxyanilide)]		11.8 ± 8.06	16.5 ± 2.49	34.7 ± 1.69	77.8 ± 1.13
Oc1ccc(CCc2ccc(O)c(O)c2)cc1O [Compound 4, 1,2-bis(3,4-dihydroxyphenyl)ethane]	10.8	19.3 ± 0.00	68.0 ± 1.71	92.8 ± 2.59	93.5 ± 4.42
